Patent US10022366B2, “Extending and maintaining micropore viability of microneedle treated skin with lipid biosynthesis inhibitors for sustained drug delivery” (University of Maryland, Baltimore, priority 2013, dated 2018)

Experiment: Reversibility/recovery of pores by transepidermal water loss (TEWL)
Type: in vivo, hairless guinea pigs (HGP)
Conditions: following 7-day treatment with FLU in vivo
Text: The reversibility/recovery of the pores following removal of occlusion was studied using transepidermal water loss (TEWL) in a HGP model. Five different sites were chosen on the dorsal region of an animal. […] All sites were marked and cleaned on the day of the treatment. […] The concentration and amount of NTX gel and FLU were consistent with the PK studies. A placebo gel was used for site 3 and site 4. The placebo gel was similar in composition to the NTX gel with 10% PG, 1% benzyl alcohol and 3% HEC as the gelling agent. […] All sites were occluded using a transdermal patch (148) secured in place with Bioclusive™ tape. […] All experiments were conducted at least in triplicate. Recovery of the skin, (i.e., regeneration of the barrier function of the SC) was studied using TEWL. These studies were carried out to look at the effect of the local concentration of FLU on the recovery/healing of the skin following removal of occlusion.

CC(C)n1c(/C=C/C(O)CC(O)CC(=O)O)c(-c2ccc(F)cc2)c2ccccc21 (stereo not shown) [FLU, fluvastatin sodium]
time of recovery/healing of skin upon removal of occlusion: 45 min
